“Also recorded” adds a separate entry of the source.
What was measured:
[1] = system: dendritic cells pulsed with recombinant human OFA/iLRP; assay: FACS binding of fluorescein-labeled 129 and 129-a peptides to dendritic cells pulsed with rHu OFA; type: cell-based; settings: FITC-labeled peptide on dendritic cells pulsed with rHu OFA 100 ng/ml
Procedure: CD 14+ monocytes were grown in serum-free dendritic cell medium containing: 1000 IU/ml GM-CSF and 1000 IU/ml of IL-4 (Cell Genix Antioch, IL) at 1×10^6 cells per ml. The cells were pulsed with rHu OFA at 100 ng/ml for 36 hours. The pulsed dendritic cells were matured using serum-free dendritic cell medium containing: 10 ng/ml IL-1beta, 1000 IU/ml IL-6, and 5 ng/ml TNF-alpha with 1 μm prostaglandin E2 and matured for 2 days. At the end of two days, the cells were scraped from the plate and analyzed using flow cytometry analysis.
Briefly, the peptide that was labeled on a cysteine included allowing for conjugation using Fluorsceine-5-maledimide (Pierce/Thermo, Rockford, Ill.) following standard protocols. The unbound fluorsceine was removed using a standard dye-removal column (Pierce/Thermo, Rockford, Ill.). This cysteine can also be used to conjugate the peptides to a range of different products.
To determine if the maturation was successful, the cells were analyzed with CD14, CD83, CD80/86, and Class II MHC (HLA-DR) following standard protocols (R&D systems; Minneapolis, Minn.). Briefly, 0.5×10^5 cells per tube were suspended in 25 μl or phosphate buffered saline with 2% fetal calf serum. […] The cells were resuspended in 400 μl of PBS with 2% FCS and analyzed. If the cells could not be analyzed immediately, then they were fixed in 0.5% formaldehyde/PBS at 4° C. in the dark. […]

DU145 cells = assay: CellTiter-Blue cell viability assay; type: cell-based; settings: for effect on cell viability: compared to peptide diluent control; for cell viability versus controls: overnight
Procedure: All cells were grown in RPMI 1640 with L-glutamine; 100 I.U. Penicillin, 100 μg/ml Streptomycin, and 10% fetal calf serum at 37° C. in a humid chamber (Mediatech, Inc. Manassas, Va.). DU 145 cells were obtained from American Type Culture Collection (ATCC, Manassas, Va.) and grown in media following standard protocols. DU145 cells were grown to between 75 and 85% density and collected following standard protocols and counted using a modified Neubauer brightline hemacytometer and suspended at 400,000 cell/ml.
(§1) Peptides were dissolved in either phosphate buffered saline (PBS) or DMSO and then PBS to a maximum of 20% DMSO and a 2× solution was made and placed into complete medium. After being diluted to appropriate concentration, 50 μl was dispensed into a 96-well assay plate, either coated with laminin/entactin complex (50 μg/ml) or untreated (Black with clear bottom) (Corning Life Sciences, Corning, N.Y.), 50 μl of cells (20,000 cells/well), and were grown overnight. Cells then had 20 μl of CellTiter-Blue added ((Promega, Madison, Wis.)) and incubated for an additional 2 hours at 37° C. Cells were then read on a DTX-880 (Beckman Inc.) following standard fluorescent protocols with an integration time of 0.001 sec. To determine if caspase activity was induced, Caspase 3/7 activity was determined using ApoOne assay (Promega, Madison, Wis.). The data was exported to Excel and then to Prism 5.0 (GraphPad Software, Inc) where it was plotted, and analyzed for statistical differences between the background control (diluents used for the peptide) using a one-way ANOVA.

Caspase 3/7 = assay: ApoOne Caspase 3/7 assay; type: cell-based; settings: DU145; data not shown
Procedure: as §1

T-cells = settings: previously described epitope; cited from earlier work

## Ac-CADHQPLTEASYVNLPT-amide (Ac-CADHQPLTEASYVNLPT-NH2) [129 peptide, start site 129]
[1]
  mean fluoresence intesity (MFI): 11,390+/−500.6

## GRFTPGTFTNQIQAAFREP [peptide 2, start site 101]
DU145 cells
  effect on cell viability: significant effect
DU145 cells; listed as Peptide 2
  effect on cell viability: significantly different than the control
DU145 cells; versus control, p<0.05
  decrease of cell viability: over 2 fold
Caspase 3/7
  Caspase 3/7 activity / induction of apoptosis: no significant change

## TWEKLLLAARAIVAIENPAD [peptide 1]
DU145 cells; laminin/entactin coated plate (laminin)
  cell viability versus controls: no statistical difference
DU145 cells; uncoated plate (w/o laminin)
  cell viability versus controls: no statistical difference

## amino acids 49-60: peptide made against the previously described OFA/iLRP epitope (amino acids 49-60), Rohrer 2006 (INLKRTWEKLLL; UniProt P08865 49-60, looked up, fragment) [reference compound]
DU145 cells
  effect on cell viability: unable to affect cell viability; also recorded: did not affect cell viability
Caspase 3/7
  Caspase 3/7 activity / induction of apoptosis: unable to affect cell viability or induce apoptosis
T-cells
  T-cell proliferation: able to proliferate T-cells

— patent US20100316574A1, “Oncofetal Antigen/Immature Laminin Receptor Peptides for the Sensitization of Dendritic Cells for Cancer Therapy” (Quantum Immunologics, Inc., priority 2009, published 2010)
